Results reported in patent US20060128695A1, “Cyclic nucleotide phosphodiesterase inhibitors, preparation and uses” (NEURO3D, priority 2002, published 2006).
Read-outs that look alike come from different tables or passages of the source.

Tests used:
Assay type in all cases: biochemical, bovine
PDE2 = target: T1, PDE2 (Bos taurus, UniProt P14099); experiment: Inhibition of PDE2, radioenzymatic phosphodiesterase assay; details: for inhibition at 10 µM: read-out: PDE2 percentage inhibition at 10 μM
T1 construct: PDE2 was prepared from bovine endothelial cells by the same methods; endogenous in cells; host or cells: bovine endothelial cells
T1 sequence (P14099 1-921): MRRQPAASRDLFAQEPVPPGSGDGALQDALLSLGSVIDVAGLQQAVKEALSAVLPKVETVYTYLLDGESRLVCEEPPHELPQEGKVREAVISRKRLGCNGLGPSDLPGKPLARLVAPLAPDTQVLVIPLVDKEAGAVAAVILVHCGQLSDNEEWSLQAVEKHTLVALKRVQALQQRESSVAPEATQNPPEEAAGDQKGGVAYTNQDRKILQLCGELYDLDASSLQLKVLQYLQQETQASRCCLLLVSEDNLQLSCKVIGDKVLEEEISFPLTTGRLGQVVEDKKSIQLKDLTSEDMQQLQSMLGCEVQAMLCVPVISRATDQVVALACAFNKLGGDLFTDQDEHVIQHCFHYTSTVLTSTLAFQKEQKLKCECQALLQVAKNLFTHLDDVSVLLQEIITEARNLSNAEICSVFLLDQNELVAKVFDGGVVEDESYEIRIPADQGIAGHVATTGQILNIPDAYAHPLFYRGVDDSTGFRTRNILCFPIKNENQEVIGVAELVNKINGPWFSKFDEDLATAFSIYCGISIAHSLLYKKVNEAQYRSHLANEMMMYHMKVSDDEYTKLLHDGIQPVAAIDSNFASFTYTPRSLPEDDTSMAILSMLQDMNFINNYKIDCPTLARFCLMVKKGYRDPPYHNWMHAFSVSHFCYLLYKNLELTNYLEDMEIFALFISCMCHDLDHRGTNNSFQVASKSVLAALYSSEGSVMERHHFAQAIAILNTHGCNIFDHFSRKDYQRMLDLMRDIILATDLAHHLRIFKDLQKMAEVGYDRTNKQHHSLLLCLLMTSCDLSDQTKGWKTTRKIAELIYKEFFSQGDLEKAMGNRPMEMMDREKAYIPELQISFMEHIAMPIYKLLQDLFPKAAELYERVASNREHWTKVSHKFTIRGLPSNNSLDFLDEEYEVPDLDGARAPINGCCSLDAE

PDE5 = target: T2, PDE5 (Bos taurus, UniProt Q28156); experiment: Selectivity: inhibition of PDE5, radioenzymatic phosphodiesterase assay; details: 10 μM test compound; vascular smooth muscle; read-out: PDE5 percentage inhibition at 10 μM
T2 construct: localize the different enzymes PDE1, PDE3, PDE4 and PDE5 which were aliquoted and frozen; from tissue; host or cells: bovine aortic media (vascular smooth muscle)
Protocol: (§1) A 3 g segment of bovine aortic media cut into pieces with scissors was homogenized with an ultra-turrax then a potter glass/glass homogenizer in 7 volumes by weight of buffer A containing a protease inhibitor cocktail (20 mM Tris-HCl, 0.25 M saccharose, 2 mM magnesium acetate, 1 mM dithiothreitol, 5 mM EGTA, 2000 U/ml aprotinin, 10 mg/l leupeptin and 10 mg/l soya trypsic inhibitor). The homogenizate was centrifuged at 105,000 g for 1 hour. The supernatant was loaded on a DEAE-Sephacel column (15 x 1.6 cm) pre-equilibrated with buffer B (buffer A without the saccharose, EGTA and protease inhibitors). The column was washed until there was no detectable absorption at 280 nm, then eluted with a linear gradient of NaCl (0-0.5 M) in buffer B. 3-ml fractions were collected and enzyme activity was determined under the conditions described hereinbelow to localize the different enzymes PDE1, PDE3, PDE4 and PDE5 which were aliquoted and frozen at −80° C. (Lugnier et al., Biochem. Phamacol., 1986, 35: 1746-1751). PDE2 was prepared from bovine endothelial cells by the same methods (Lugnier and Schini, Biochem. Pharmacol., 1990, 39: 75-84).
(§2) Cyclic nucleotide phosphodiesterase activity was determined by a radioenzymatic method using tritium-labelled cyclic GMP or AMP (1 μM) as substrate (Lugnier et al., 1986). ^3H-labelled adenosine or guanosine monophosphate formed by hydrolysis of the radiolabelled cyclic nucleotide was then converted to ^3H-labelled adenosine or guanosine in a second reaction with […] in excess. The nucleoside formed was separated from the nucleotides by anion exchange chromatography. Nucleoside radioactivity was determined by liquid scintillation counting. Enzymatic incubations were carried out under conditions allowing no more than 15% hydrolysis of the substrate; each point was performed in duplicate.
(§3) The activity of the compounds was evaluated on other phosphodiesterase isoforms, particularly basal state or calmodulin-activated PDEl from vascular smooth muscle, PDE3, PDE4 and PDE5 from vascular smooth muscle.
(§4) The results obtained are presented in Tables 1 and 2 hereinbelow and are expressed as the percentage inhibition of enzymatic activity produced by […] of the test compound.

PDE4 = experiment: Selectivity: inhibition of PDE4, radioenzymatic phosphodiesterase assay; details: vascular smooth muscle; for PDE4 percentage inhibition at 10 μM: 10 μM test compound; for IC50: cells without % sign
Protocol: as §1, §2, §3, §4

[1] = 10 μM test compound, PDE2 from bovine endothelial cells
[2] = 1 μM cyclic AMP, PDE2 from bovine endothelial cells, read-out: PDE2 IC50

COc1cc2c(c(Br)c1OC)C(c1cccc(C(N)=O)c1)=NCC(=O)N2C [Compound 5b, 3-(6-bromo-7,8-dimethoxy-1-methyl-2-oxo-2,3-dihydro-1H-1,4-benzodiazepin-5-yl)benzamide]
IC50 (PDE2): 2100 nM
inhibition at 10 µM (PDE5): 21.6%

COc1cc2c(cc1OC)N(C)C(=O)CN=C2c1cccc(C#CCCCC#N)c1 [Compound 6d, 6-[3-(7,8-dimethoxy-1-methyl-2-oxo-2,3-dihydro-1H-1,4-benzodiazepin-5-yl)phenyl]hex-5-ynenitrile]
IC50 (PDE2): 2400 nM
PDE4 percentage inhibition at 10 μM (PDE4): 55.7%

COc1cc2c(cc1OC)N(C)C(=O)CN=C2c1cccc(-c2ccc(Cl)cc2)c1 [Compound 6j, 5-(4′-chloro-1,1′-biphenyl-3-yl)-7,8-dimethoxy-1-methyl-1,3-dihydro-2H-1,4-benzodiazepin-2-one]
IC50 (PDE2): 710 nM
IC50 (PDE4): 2800 nM

COc1cc2c(cc1OC)N(C)C(=O)CN=C2c1cccc(-c2ccc(C#N)cc2)c1 [Compound 6m, 3′-(7,8-dimethoxy-1-methyl-2-oxo-2,3-dihydro-1H-1,4-benzodiazepin-5-yl)-1,1′-biphenyl-4-carbonitrile]
inhibition at 10 µM (PDE2): 82.3%
PDE4 percentage inhibition at 10 μM (PDE4): 37.3%

COc1cc2c(cc1OC)N(C)C(=O)CN=C2c1cccc(-c2ccc(C(N)=O)cc2)c1 [Compound 6n, 3′-(7,8-dimethoxy-1-methyl-2-oxo-2,3-dihydro-1H-1,4-benzodiazepin-5-yl)-1,1′-biphenyl-4-carboxamide]
inhibition at 10 µM (PDE2): 84.6%
PDE4 percentage inhibition at 10 μM (PDE4): 58.7%

CCN1C(=O)C(Cc2ccc(Cl)c(Cl)c2)N=C(c2ccccc2)c2cc(OC)c(OC)cc21 (centres unmarked) [Compound 7a, 3-(3,4-dichlorobenzyl)-1-ethyl-7,8-dimethoxy-5-phenyl-1,3-dihydro-2H-1,4-benzodiazepin-2-one]
IC50 (PDE2): 3130 nM
IC50 (PDE4): 6520 nM

COc1cccc2c1C(c1ccccc1)=NCC(=O)N2 [Compound 28d, 6-methoxy-5-phenyl-1,3-dihydro-2H-1,4-benzodiazepin-2-one]
inhibition at 10 µM (PDE2): 4.7%

COc1ccc2c(c1)C(c1ccccc1)=NCC(=O)N2 [Compound 28e, 7-methoxy-5-phenyl-1,3-dihydro-2H-1,4-benzodiazepin-2-one]
inhibition at 10 µM (PDE2): 8.8%

COc1cc2c(c(Br)c1OC)NC(=O)CN=C2c1ccccc1 [Compound 28f, 9-bromo-7,8-dimethoxy-5-phenyl-1,3-dihydro-2H-1,4-benzodiazepin-2-one]
inhibition at 10 µM (PDE2): 13.5%

COc1ccc2c(c1)N(C)C(=O)CN=C2c1cccc(C#N)c1 [Compound 29a, 3-(8-methoxy-1-methyl-2-oxo-2,3-dihydro-1H-1,4-benzodiazepin-5-yl)benzonitrile]
IC50 (PDE2): 35000 nM

COC(=O)c1cccc(C2=NCC(=O)N(C)c3cc(OC)c(OC)cc32)c1 [Compound 34a, 3-(7,8-dimethoxy-1-methyl-2-oxo-2,3-dihydro-1H-1,4-benzodiazepin-5-yl)methyl benzoate]
IC50 (PDE2): 2600 nM

COc1cc2c(cc1OC)N(C)C(=O)CN=C2c1cccc(C(=O)O)c1 [Compound 35a, 3-(7,8-dimethoxy-1-methyl-2-oxo-2,3-dihydro-1H-1,4-benzodiazepin-5-yl)benzoic acid]
inhibition at 10 µM (PDE2; [1]): 26%

COc1cc2c(cc1OC)N(C)C(=O)CN=C2c1cccc(C(=O)NC(C)C)c1 [Compound 36a, 3-(7,8-dimethoxy-1-methyl-2-oxo-2,3-dihydro-1H-1,4-benzodiazepin-5-yl)N-isopropylbenzamide]
inhibition at 10 µM (PDE2; [1]): 75.9%

COc1cc2c(cc1OC)N(C)C(=O)CN=C2c1cccc(C(=O)NCc2ccccc2)c1 [Compound 36b, N-benzyl-3-(7,8-dimethoxy-1-methyl-2-oxo-2,3-dihydro-1H-1,4-benzodiazepin-5-yl) benzamide]
IC50 (PDE2): 3100 nM

COc1cc2c(cc1OC)N(C)C(=O)CN=C2c1cccc(C(=O)NCCCCCC(N)=O)c1 [Compound 36c, N-(6-amino-6-oxohexyl)-3-(7,8-dimethoxy-1-methyl-2-oxo-2,3-dihydro-1H-1,4-benzodiazepin-5-yl)benzamide]
inhibition at 10 µM (PDE2): 46%

COc1cc2c(cc1OC)N(C)C(=O)CN=C2c1cccc(C(=O)N(C)C)c1 [Compound 36d, 3-(7,8-dimethoxy-1-methyl-2-oxo-2,3-dihydro-1H-1,4-benzodiazepin-5-yl)-N,N-dimethylbenzamide]
inhibition at 10 µM (PDE2; [1]): 17%

COc1cc2c(cc1OC)N(C)C(=O)CN=C2c1cccc(C(=O)N2CCN(Cc3ccccc3)CC2)c1 [Compound 36e, 5-{3-[(4-benzylpyperazin-1-yl)carbonyl]phenyl}7,8-dimethoxy-1-methyl-2-oxo-2,3-dihydro-1H-1,4-benzodiazepin-2-one]
PDE2 percentage inhibition at 10 μM (PDE2; [1]): 27%

COc1cc2c(cc1OC)N(C)C(=O)CN=C2c1cccc(C(=O)NCCCc2ccccc2)c1 [Compound 36f, 3-(7,8-dimethoxy-1-methyl-2-oxo-2,3-dihydro-1H-1,4-benzodiazepin-5-yl)-N-(3-phenylpropyl)benzamide]
IC50 (PDE2): 2800 nM

Methyl (2E)-3-[5-(cyanophenyl)-7,8-dimethoxy-1-methyl-2-oxo-2,3-dihydro-1H-1,4-benzodiazepin-9-yl)phenyl]acrylate [Compound 25d]
PDE2 percentage inhibition at 10 μM (PDE2; [1]): 2.4%

Tert-butyl-3-[5-(cyanophenyl)-(7,8-dimethoxy-1-methyl-2-oxo-2,3-dihydro-1H-1,4-benzodiazepin-9-yl)phenyl]prop-2-ynylcarbamate [Compound 25c]
IC50 (PDE2; [2]): 3400 nM

[6-(3-aminoethynyl)-7,8-dimethoxy-1-methyl-2-oxo-2,3-dihydro-1H-1,4-benzodiazepin-5-yl]benzonitrile [Compound 25g]
PDE2 percentage inhibition at 10 μM (PDE2; [1]): 14.5%

[9-(3-aminoethynyl)-7,8-dimethoxy-1-methyl-2-oxo-2,3-dihydro-1H-1,4-benzodiazepin-5-yl]benzonitrile [Compound 25f]
PDE2 percentage inhibition at 10 μM (PDE2; [1]): 0%

tert-butyl-3-[5-(cyanophenyl)-(7,8-dimethoxy-1-methyl-2-oxo-2,3-dihydro-1H-1,4-benzodiazepin-6-yl)phenyl]prop-2-ynylcarbamate [Compound 25e]
IC50 (PDE2; [2]): 5000 nM
